Data set [1] addresses Mcl-1. Nature of the data set: Binding of synthetic peptide to target protein by surface plasmon resonance (SPR, Biacore T200). The protocol:
Preparation of Target Protein
A plasmid construct was prepared in which a gene containing the amino acid 1-172 portion of MCL-1 was introduced into plasmid pET28a, and a His6 tag, MBP, and a TEV protease recognition sequence were attached to the N terminal side thereof. This plasmid was transformed into E. coli strain BL21 (DE3) RIPL which was then cultured at 30° C. In a case where the O.D. reached 0.8, IPTG […] was added to induce large-scale expression, followed by culturing at 16° C. overnight. The recovered bacterial cells were suspended in Lysis Buffer A (25 mmol/L Tris (pH 7.5), 150 mmol/L NaCl), and then disrupted by sonication. This was followed by centrifugation at 15 krpm for 15 minutes. The supernatant after centrifugation was purified using a Ni-NTA resin (manufactured by QIAGEN GmbH). The sample adsorbed to the Ni-NTA resin was washed with Lysis Buffer A containing 15 mmol/L imidazole and then eluted with Lysis Buffer A containing 200 mmol/L imidazole. The sample was stored at −80° C. after substitution with Lysis buffer by dialysis.
Evaluation of Binding of Synthetic Peptide to Target Protein Using Surface Plasmon Resonance (SPR)
An SPR experiment for analyzing the interaction of a synthetic peptide with Mel-1 was carried out at 25° C. using Biacore T200 (manufactured by GE Healthcare Inc.). The synthetic peptide was added to the immobilized protein, and the interaction therebetween was evaluated.
A buffer obtained by adding dimethylformamide (DMF) or dimethylsulfoxide (DMSO) to a final concentration of 1 vol % to HBS-EP+ (manufactured by GE Healthcare Inc.) was used as a running buffer. Mcl-1 was immobilized on a Biacore Sensor Chip Series S Sensor Chip CM5 (manufactured by GE Healthcare Inc.) using an Amine Coupling Kit (manufactured by GE Healthcare Inc.). In order to measure the dissociation constant (KD), each synthetic peptide was added at multiple concentrations to obtain a sensorgram of binding to immobilized Mel-1.
The analysis of the obtained sensorgram was carried out using T200 evaluation software (manufactured by GE Healthcare Inc.). Solvent correction to DMF or DMSO was carried out, and then the KD was determined by equilibrium value analysis using a sensorgram obtained by subtracting the sensorgram to a flow cell in which Mcl-1 is not immobilized.
One having a KD of less than 50 μmol/L is denoted as A, and one having a KD of 50 μmol/L or more is denoted as B.
Binding of the synthetic peptide to the target protein was evaluated in the same manner as described above.

Data set [2] is described as follows: Metabolic stability of cyclic peptides in human liver microsomes (HLM residual rate). The conditions noted are these: 1 μmol/L, human liver microsomes 0.5 mg protein/mL, 37° C., 20 minutes, NADPH and UDPGA. The class given is in vitro ADME. The protocol: Test of metabolic stability of cyclic peptide in human liver microsome
An experiment using human liver microsomes (HLMs) was carried out in order to compare and examine the metabolic stability of the synthesized cyclic peptides.
The compound with a final concentration of 1 μmol/L was incubated in human liver microsomes (BD Cat #452117) prepared to a final concentration of 0.5 mg protein/mL using 100 mmol/L phosphate buffer (pH 7.4) at 37° C. for 20 minutes in the presence of reduced nicotinamide adenine dinucleotide phosphate (NADPH) and uridine 5′-diphosphate-α-D-glucuronic acid (UDPGA). Deproteinization treatment with acetonitrile was carried out, the amount of unaltered substance remaining was quantified using LC/MS/MS, and the residual rate (%) in 20 minutes was calculated. The HLM residual rate (%) obtained by this method is described in the following table.
Evaluation standards are as follows.
(Liver microsomes are a subcellular fraction often used to study metabolism.)

A short description of data set [3]: Membrane permeability of synthesized cyclic peptides by PAMPA (Measurement Method A: 1 μmol/L; Method B: 10 μmol/L). The class given is in vitro ADME. As to conditions: Measurement method A, 25° C., 4 hours. On the technique in general: PAMPA measures passive passage across an artificial lipid membrane.
Setting [4] is: immobilized Mcl-1, Table 53 (peptides from mRNA display), read-out: Binding evaluation result (KD).
Where [5] appears, read: 25° C., immobilized Mcl-1, Table 51, read-out: Binding evaluation result (KD).

Like-named read-outs stand apart in the source and are kept apart here. Starred links: 1 amine or outer side, 2 acyl side, 3 side chain; linkers in the order of their positions; H or OH if unused. Positions of bridges follow the written chain, without caps; N, C: chain ends. Non-standard residues stand in square brackets, D forms with d. Residues, ends and D or L forms follow the SMILES beside them. ξ: configuration not given here. 2Pal(6-thiazolin-2-yl-4R-CO) = O=C([C@H](Cc1cccc(C2=N[C@H](C(=O)[*:3])CS2)n1)N[*:1])[*:2]; Phe(3-(4R-CO-2-thiazolinyl)) = O=C([C@H](Cc1cccc(C2=N[C@H](C(=O)[*:3])CS2)c1)N[*:1])[*:2]; Ile(3ξ) = CCC(C)[C@H](N)C(=O)O; dCha = N[C@H](CC1CCCCC1)C(=O)O

The values below come from patent US11319347B2, “Peptide compound and method for producing same, composition for screening use, and method for selecting peptide compound” (FUJIFILM Corporation, priority 2017, dated 2022).

In general, Kd refers to the concentration at which binding is half-saturated. `CC[C@H](C)[C@@H]1NC(=O)[C@H](CC(=O)O)NC(=O)[C@@H]2CSC(=N2)c2cc(cs2)CC(C(N)=O)NC(=O)[C@H](CCCNC(=N)N)NC(=O)[C@H](CC(=O)O)NC(=O)CNC(=O)[C@H](CC(=O)O)NC(=O)[C@H](CCCCN)NC(=O)[C@H](Cc2ccc(O)cc2)NC(=O)[C@H](CC(=O)O)NC(=O)[C@H](Cc2ccc(O)cc2)NC(=O)[C@H](C(C)C)NC(=O)CNC(=O)[C@H](C(C)C)NC1=O` (stereo partly drawn) [a-6-3]: the Kd in data set [1] (setting [4]) was at least 50 µM. Still for that read-out and setting: the value for `CC(C)C[C@@H]1NC(=O)[C@@H]2CCCN2C(=O)[C@H](Cc2c[nH]c3ccccc23)NC(=O)[C@H](Cc2ccccc2)NC(=O)[C@H]([C@H](C)O)NC(=O)[C@@H]2CCCN2C(=O)[C@H](CC(=O)O)NC(=O)[C@H](CS)NC(=O)[C@H](Cc2ccc(O)cc2)NC(=O)[C@H](CCC(=O)O)NC(=O)[C@@H]2CSC(=N2)c2cc(cs2)C[C@@H](C(N)=O)NC(=O)[C@H](CCCNC(=N)N)NC(=O)[C@H](CCCNC(=N)N)NC(=O)[C@H](Cc2ccccc2)NC1=O` [a-6-1] was under 50 µM.

Take `CC[C@H](C)[C@@H]1NC(=O)[C@H](CCC(N)=O)NC(=O)[C@H](CCCNC(=N)N)NC(=O)[C@H](CC(C)C)NC(=O)CNC(=O)[C@H](CC(=O)O)NC(=O)[C@H](C(C)C)NC(=O)[C@H](C(C)C)NC(=O)[C@H](CC(N)=O)NC(=O)[C@@H]2CCCN2C(=O)[C@@H]2CSC(=N2)c2cc(cs2)CC(C(N)=O)NC(=O)[C@H]([C@@H](C)O)NC(=O)[C@H](CC(=O)O)NC(=O)CNC1=O` (stereo partly drawn) [a-6-6]: the Kd in data set [1] (setting [4]) was under 50 µM. Regarding `CC(C)C[C@@H]1NC(=O)[C@H](Cc2ccccc2)NC(=O)[C@H](C)NC(=O)[C@@H]2CCCN2C(=O)[C@H](Cc2c[nH]c3ccccc23)NC(=O)[C@H](CC(C)C)NC(=O)[C@@H](CS)NC(=O)[C@H](C)NC(=O)C(Cc2c[nH]c3ccccc23)NC(=O)[C@H](CO)NC(=O)C(CCCNC(=N)N)NC(=O)[C@@H]2CSC(=N2)c2cccc(n2)C[C@H](C(N)=O)NC(=O)[C@H](Cc2ccc(O)cc2)NC(=O)[C@H](Cc2c[nH]c3ccccc23)NC1=O` (stereo partly drawn) [Cyclic peptide a-5-1], in data set [1] (setting [5]), the Kd was at least 50 µM. As for `CCC(C)[C@@H]1NC(=O)[C@@H]2CCCN2C(=O)[C@H](Cc2c[nH]c3ccccc23)NC(=O)[C@H](CC(C)C)NC(=O)[C@H](CC(C)C)NC(=O)[C@H](C(C)C)NC(=O)[C@H](Cc2c[nH]c3ccccc23)NC(=O)[C@@H]2CCCN2C(=O)[C@@H]2CSC(=N2)c2cccc(n2)C[C@@H](C(N)=O)NC(=O)[C@H](CC(C)C)NC(=O)[C@H](CO)NC(=O)[C@@H]2CCCN2C(=O)[C@H](C(C)C)NC(=O)[C@H](CC(C)C)NC1=O` (stereo partly drawn) [Cyclic peptide a-5-7] (PWVLLWP[Ile(3ξ)]LVPSL[2Pal(6-thiazolin-2-yl-4R-CO)]-NH2; lactam N-14), the Kd in data set [1] (setting [5]) was at least 50 µM.

Take `CC(C)C[C@@H]1NC(=O)CNC(=O)[C@@H]2CCCN2C(=O)[C@H](CCC(=O)O)NC(=O)[C@H](Cc2ccccc2)NC(=O)[C@H](CO)NC(=O)[C@@H]2CSC(=N2)c2cccc(n2)C[C@@H](C(N)=O)NC(=O)[C@H](CC(C)C)NC(=O)[C@H](C(C)C)NC(=O)[C@H](CCCNC(=N)N)NC(=O)[C@H](Cc2ccccc2)NC(=O)[C@H](CC(C)C)NC(=O)[C@H](Cc2c[nH]c3ccccc23)NC(=O)[C@H](Cc2c[nH]c3ccccc23)NC1=O` [Cyclic peptide a-5-5] (SFEPGLWWLFRVL[2Pal(6-thiazolin-2-yl-4R-CO)]-NH2; lactam N-14): in data set [1] (setting [5]), the dissociation constant (Kd) was under 50 µM. As for `CC[C@H](C)[C@@H]1NC(=O)[C@H](CO)NC(=O)[C@H](CO)NC(=O)[C@H](CC(C)C)NC(=O)[C@H]([C@@H](C)O)NC(=O)[C@H]([C@@H](C)O)NC(=O)[C@@H]2CSC(=N2)c2cc(cs2)C[C@@H](C(N)=O)NC(=O)[C@H](CCCNC(=N)N)NC(=O)[C@H](CCCNC(=N)N)NC(=O)[C@H](CC(=O)O)NC(=O)[C@H](C(C)C)NC(=O)[C@H](CCC(N)=O)NC(=O)[C@H](CC(=O)O)NC(=O)CNC1=O` [a-6-5], the Kd in data set [1] (setting [4]) is under 50 µM. Turning to `CC(C)C[C@@H]1NC(=O)[C@H](C)NC(=O)[C@@H](Cc2ccccc2)NC(=O)[C@@H]2CSC(=N2)c2cccc(n2)C[C@@H](C(N)=O)NC(=O)[C@H](Cc2ccccc2)NC(=O)[C@H](C)NC(=O)[C@H](CC(C)C)NC(=O)[C@@H]2CCCN2C(=O)[C@@H](CC(C)C)NC(=O)[C@@H](Cc2ccccc2)NC(=O)[C@H](CCC(N)=O)NC(=O)[C@@H]2CCCN2C(=O)[C@@H](Cc2c[nH]c3ccccc23)NC(=O)[C@H](CC(C)C)NC1=O` [Cyclic peptide a-5-3] ([dF]ALL[dW]PQ[dF][dL]PLAF[2Pal(6-thiazolin-2-yl-4R-CO)]-NH2; lactam N-14), the dissociation constant Kd in data set [1] (setting [5]) was at least 50 µM.

On to `CC[C@H](C)[C@@H]1NC(=O)[C@H](CO)NC(=O)[C@H](CCCNC(=N)N)NC(=O)[C@H](CC(C)C)NC(=O)[C@H]([C@@H](C)O)NC(=O)[C@H](CO)NC(=O)[C@H](C)NC(=O)[C@H]([C@@H](C)O)NC(=O)[C@H](CCC(=O)O)NC(=O)[C@H](CCC(=O)O)NC(=O)[C@@H]2CSC(=N2)c2cc(cs2)C[C@@H](C(N)=O)NC(=O)[C@H](CO)NC(=O)[C@H](CC(=O)O)NC(=O)CNC1=O` [a-6-4], for which the Kd in data set [1] (setting [4]) was under 50 µM.

`CC(C)C[C@@H]1NC(=O)[C@H](CC(=O)O)NC(=O)[C@H](CCC(N)=O)NC(=O)[C@H](CC(=O)O)NC(=O)[C@H](CCCCN)NC(=O)[C@H](Cc2ccc(O)cc2)NC(=O)[C@H](CC(=O)O)NC(=O)[C@H](Cc2ccc(O)cc2)NC(=O)[C@H](CCC(=O)O)NC(=O)[C@H](Cc2ccccc2)NC(=O)[C@H](C)NC(=O)CNC(=O)[C@H](C)NC(=O)[C@@H]2CSC(=N2)c2cc(cs2)C[C@H](C(N)=O)NC1=O` [a-6-2]: in data set [1] (setting [4]), the Kd is at least 50 µM.

With `CC(C)C[C@@H]1NC(=O)[C@H](Cc2c[nH]c3ccccc23)NC(=O)[C@@H]2CCCN2C(=O)[C@H](Cc2c[nH]c3ccccc23)NC(=O)[C@H](CC(C)C)NC(=O)[C@H](C(C)C)NC(=O)[C@H](CS)NC(=O)[C@H](Cc2c[nH]c3ccccc23)NC(=O)[C@H](CO)NC(=O)[C@@H]2CSC(=N2)c2cccc(n2)C[C@@H](C(N)=O)NC(=O)CNC(=O)[C@H](Cc2c[nH]c3ccccc23)NC(=O)[C@H](Cc2ccccc2)NC(=O)[C@H](C(C)C)NC1=O` [Cyclic peptide a-5-6] (SWCVLWPWLVFWG[2Pal(6-thiazolin-2-yl-4R-CO)]-NH2; lactam N-14), the Kd in data set [1] (setting [5]) was at least 50 µM. Still for that read-out and setting: the value for `CC(C)C[C@@H]1NC(=O)[C@H](C)NC(=O)[C@H](Cc2ccccc2)NC(=O)[C@H](C)NC(=O)[C@@H]2CCCN2C(=O)[C@H](Cc2c[nH]c3ccccc23)NC(=O)[C@H](CC(C)C)NC(=O)[C@H](CS)NC(=O)[C@H](C)NC(=O)[C@H](Cc2c[nH]c3ccccc23)NC(=O)[C@@H]2CSC(=N2)c2cccc(n2)C[C@@H](C(N)=O)NC(=O)[C@H](CC(C)C)NC(=O)[C@H](Cc2c[nH]c3ccccc23)NC(=O)[C@H](CO)NC1=O` [Cyclic peptide a-5-8] (WACLWPAFALSWL[2Pal(6-thiazolin-2-yl-4R-CO)]-NH2; lactam N-14) was at least 50 µM; that for `CC(C)C[C@@H]1NC(=O)[C@H](C(C)C)NC(=O)[C@H](CO)NC(=O)[C@H](Cc2c[nH]c3ccccc23)NC(=O)[C@@H]2CSC(=N2)c2cccc(n2)C[C@@H](C(N)=O)NC(=O)[C@H](CO)NC(=O)[C@H](C(C)C)NC(=O)[C@H](CO)NC(=O)[C@@H]2CCCN2C(=O)[C@H](C(C)C)NC(=O)[C@H](Cc2ccccc2)NC(=O)[C@H](Cc2c[nH]c3ccccc23)NC(=O)[C@@H]2CCCN2C(=O)[C@H](Cc2c[nH]c3ccccc23)NC1=O` [Cyclic peptide a-5-4] (WSVLWPWFVPSVS[2Pal(6-thiazolin-2-yl-4R-CO)]-NH2; lactam N-14) was under 50 µM.

Regarding `N=C(N)NCCC[C@@H]1NC(=O)[C@H](Cc2c[nH]c3ccccc23)NC(=O)[C@@H](CC2CCCCC2)NC(=O)[C@@H]2CCCN2C(=O)[C@@H]2CSC(=N2)c2cccc(c2)C[C@@H](C(N)=O)NC1=O` [3-4] (P[dCha]WR[Phe(3-(4R-CO-2-thiazolinyl))]-NH2; lactam N-5), in data set [2], the HLM residual rate result was “+++ (60%<HLM residual rate (%))”. Further, the “Pe(10^−6 cm/sec)” value in data set [3] is listed as “+++ (0.5<Pe (10^−6 cm/s))”.
